This is an account of results in patent publication EP3441077A1, “PHARMACEUTICAL PRODUCT FOR TREATING ANKYLOSING SPONDYLITIS AND COMBINED IMMUNE DEFECT, AND PREPARATION AND APPLICATION THEREOF” (Beijing Lu De Kai Qi Co., Ltd., priority 2016, dated 2017).

In data set [1] the test system is patients with ankylosing spondylitis. The data set can be described thus: Clinical trial in patients with ankylosing spondylitis. The format is in vivo, human. The conditions noted are these: for Cure / Effective / Improved / Ineffective / excellence / upturn: 100 patients per group. On the procedure: Clinical trials were performed in patients with ankylosing spondylitis. The criteria for inclusion are as follows: • (1) The New York Standard for Ankylosing Spondylitis revised in 1984 is met. • (2) The diagnostic criteria for the "renal deficiency and cold syndrome" of Ankylosing Spondylitis in Traditional Chinese Medicine is met. It is obtained by reference to the "Guidelines for Clinical Research of New Pharmaceutical products for Treating Arthralgia" and combined with the clinical experience of Professor Jiao Shude and Professor Yan Xiaoping. […] The five criteria for IBP are: age of onset <40 years old; insidious onset; improvement after exercise; no improvement after rest; and nocturnal pain (improvement after getting up). If the patient meets 4 of them, he or she can be confirmed to have IBP (sensitivity 77.0%, specificity 91.7%). […] Treatment method: a randomized control method was used. There are 100 patients in the test group, 100 patients in the control group 1, and 100 patients in the control group 2. […] Control group 1: the patients were orally administrated with loxoprofen sodium from Sankyo Co. Ltd., Japan twice a day in the morning and evening, and 3 months is a course of treatment. Control group 2: the patients were orally administrated with the traditional Chinese medicine for treating ankylosing spondylitis prepared in the examples of CN102091137B twice a day in the morning and evening, and 3 months is a course of treatment. No other medications for ankylosing spondylitis is administered during the course of treatment. In particular, the traditional Chinese medicine for treating ankylosing spondylitis prepared in the examples of CN102091137B is prepared as following: weighing the raw materials that contain in the formula ,that is 10 g of rhizoma cibotii, 15 g of pilose antler, 10 g of dipsacus asper, 5 g of scorpio, 15 g of kudzu vine root, 12 g of chuanxiong rhizome, 5 g of caulis spatholobi, 15 g of white paeony root, 15 g of common peony root, 10g of safflower carthamus, 15 g of medicinal cyathula root and 10 g of white mustard seed, adding 1500 ml of water, decocting with slow fire to concentrate the medicine liquid to 250 ml, filtering dregs of a decoction and preparing a decoction. Table 8 Indicators for efficacy evaluation in this clinical trial [table] […] Table 9 Statistical results of clinical trial After taking three courses of treatment, all the patients in the three groups stopped taking medication, and whether the symptoms were aggravated or slowed down was observed one month, three months, and twelve months after pharmaceutical product withdrawal. If the symptoms after a period of drug withdrawal were more serious than the symptoms at the time of drug withdrawal, it was labeled as "-", otherwise labeled as "+". If there were two grades in the difference, it was labeled as […]. For example, if the therapeutic effect of patient A at the time of drug withdrawal was improved, and the therapeutic effect twelve months after drug withdrawal was Ineffective, it was labeled as "-2". Table 10 Statistical results of clinical trial after pharmaceutical product withdrawal

The test system of data set [2] is mouse bone marrow polychromatic erythrocytes. The note with it: 50 mg/kg•bw, positive control; for Number of micronucleus: 5000 cells examined; for Micronucleus rate (‰): P<0.01 vs negative control.
Protocol: Test animals: The healthy Kunming mice provided by the Experimental Animal Center of the National Institute for the Control of Pharmaceutical and Biological Products are selected. • 3. Mouse bone marrow polychromatic erythrocyte micronucleus assay The assay was carried out via oral gavage and the administration was performed twice at intervals of 24 hr. 50 mice weighing 25-30 g are randomly divided into 5 groups according to body weight, 10 in each group, half male and half female. […] The doses of the pharmaceutical product for treating ankylosing spondylitis for combined immunodeficiency according to the present invention are 2.50, 5.00, and 10.00 g/kg•bw, respectively, which were adjusted to the desired concentration with distilled water. The animals were sacrificed by cervical dislocation six hours after the last administration of the pharmaceutical product for treating ankylosing spondylitis for combined immunodeficiency according to the present invention. The bone marrow of sternum was diluted with calf serum, smeared, fixed in methanol, and stained with Giemsa. Under the light microscope, 1000 polychromatic erythrocytes (PRC) were measured per animal, and the incidence of micronucleus was determined by the permillage of micronucleus-containing PRC and statistical process is performed.
For a further data set, the system named is male mice. The conditions noted are these: 40 mg/kg•bw, positive control.
Where [3] appears, read: At the time of drug withdrawal (after three courses).
Where [4] appears, read: One course of treatment (3 months), oral twice a day, graded per Table 8.
[5] abbreviates: One month after drug withdrawal.
Where [6] appears, read: Three courses of treatment, oral twice a day, graded per Table 8.
Setting [7] is: Twelve months after drug withdrawal.
The mark [8] stands for this setting: three months after drug withdrawal.

Where two headings read alike, the source gives them in different places. Marks after values point to notes of the source that are not given here.

Protocol for male mice: Sperm abnormality assay in mice 50 sexually mature male mice weighing 30-35 g is randomly divided into 5 groups. […] The doses of the pharmaceutical product for treating ankylosing spondylitis for combined immunodeficiency according to the present invention is 1.25, 2.50, and 5.00 g/kg•bw, respectively, which were adjusted to the desired concentration with distilled water. The mice were administered via oral gavage once a day for 5 days, and the animals were sacrificed 30 days after the last gavage. The epididymis is sectioned and stained with eosin. Five animals were measured in each group and 1000 spermatozoa with intact structural were measured per animal, by which the incidence of sperm abnormality (in percentage) was calculated and statistical process is performed. […] Table 3 Statistical results of sperm abnormality assay in mice

`CC(C(=O)O)c1ccc(CC2CCCC2=O)cc1` (stereo not shown) [loxoprofen sodium]: in data set [1] (setting [3]), the Cure was 0 case, the Effective amounted to 36 case, the Improved was 3 case and the Ineffective is listed as 61 case. In data set [1] (setting [4]), this molecule registered a Cure of 0 case, an Ineffective of 82 case, an excellence of 0 case and an upturn of 18 case. Further, in data set [1] (setting [5]), the Cure is given as 0 case, the Effective was 31 case, the Improved was 2 case and the Ineffective was 67 case. In data set [1] (setting [6]), this molecule displayed a Cure of 0 case, an Ineffective of 61 case, an excellence of 3 case and an upturn of 36 case. In data set [1] (setting [7]), this molecule showed a Cure of 0 case, an Effective of 9 case, an Improved of 0 case and an Ineffective of 91 case. The “course of the therapeutic effect after withdrawal (in words)” value in data set [1] (after three courses of treatment and then withdrawal) is reported as “had more disease relapse”. In addition, in data set [1] (setting [8]), the Cure stood at 0 case, the Effective was found to be 20 case, the Improved was determined as 0 case and the Ineffective is on record as 80 case.
On to `O=P1(N(CCCl)CCCl)NCCCO1` (stereo not shown) [cp, cyclophosphamide], for which, in data set [2] (Female mice), the Number of micronucleus turned out to be 150 and the “Micronucleus rate (‰)” value is reported as 30.0* ‰. In data set [2] (Male mice), the Number of micronucleus is 167 and the “Micronucleus rate (‰)” value is listed as 33.4* ‰. For the same molecule, the “Number of abnormal sperms” value in the data set with male mice (5000 sperms examined) is on record as 487. Further, the “Rate of sperm abnormality (%)” value with male mice (P<0.01 vs negative control) was 9.74* %.
